Results on 7 molecules are retold here after patent US20070123555A1, “PREVENTION AND TREATMENT OF HEARING DISORDERS” (Cypress Bioscience, Inc., priority 2005, published 2007).

Entries after “also recorded” stand apart in the source; their conditions may differ. Read-outs that look alike come from different tables or passages of the source.

The subject of data set [1] is permanent threshold shift. The following applies: 6.7 mmol daily, versus placebo (sodium aspartate); rifle noise six days per week for eight weeks; cited from earlier work.
For data set [2], the system named is outer hair cells of cochlear explants. As to the kind of experiment: Cochlear explant cultures challenged with cisplatin, outer hair cell damage. It is filed as cell-based, Sprague-Dawley rats. The text has this:
Explants of sensory epithelium from the basal turn of postnatal day 5 (p5) Sprague-Dawley rats were isolated using the methods of Van De Water and Sobkowicz (Van d Water T., Ruben R. J. (1974) “Growth of the inner ear in organ culture,” Ann. Otol. Rhinol. Laryngol., 83:1-16; Sobkowicz H. M., Loftus J. M., Slapnick S. M. (1993) “Tissue culture of the organ of Corti.,” Acta. Suppl. 502:3-36). Explants were maintained in Dulbecco's Modified Eagle's medium with 10% fetal bovine serum and 30 U/ml penicillin. HEPES buffer was added to a concentration of 25 mM and the glucose concentration increased to 6 mg/ml to enhance neuronal survival. Each 15 mm dish containing 250 μl of medium was maintained in an incubator at 37° C. with 5% CO2 and 95% humidity.
Toxicity-inducers (gentamicin or cisplatin, 1-100 μM) were exposed to the medium 12-24 h following plating for 48 h. Concentrations of gentamicin or cisplatin were employed that produced approximately 50% loss of outer hair cells, which permitted for assessments of either increases or decreases in outer hair cell damage.
Test compounds were applied to the cultures for 12 h, and then challenged with medium containing gentamicin or cisplatin plus the test compound for an additional 48 h, followed by fixation and evaluation.
At the end of culture, free floating explants were fixed with 4% paraformaldehyde and 1% glutaraldehyde in phosphate-buffered saline. The explants were then permeabilized with 1 % Tween-20 in phosphate-buffered saline. The explants were then stained with conjugated phalloidin-rhodamine probe in phosphate-buffered saline, washed twice, and mounted between two cover slips in a 1:3 mixture of phosphate-buffered saline/glycerol. Explants were imaged by light and fluorescence microscopy and by laser confocal microscopy to assess the degree of damage to the outer hair cells.
The results of one such test, employing cisplatin as an ototoxic agent and nicergoline as a test compound, are shown in FIG. 1. The control cultures contained no cisplatin and no nicergoline. […]

The target of data set [3] is CYP2D6 (Homo sapiens, UniProt P10635). The following applies: cited from earlier work.
Sequence of CYP2D6 (Homo sapiens, UniProt P10635) (P10635 whole entry): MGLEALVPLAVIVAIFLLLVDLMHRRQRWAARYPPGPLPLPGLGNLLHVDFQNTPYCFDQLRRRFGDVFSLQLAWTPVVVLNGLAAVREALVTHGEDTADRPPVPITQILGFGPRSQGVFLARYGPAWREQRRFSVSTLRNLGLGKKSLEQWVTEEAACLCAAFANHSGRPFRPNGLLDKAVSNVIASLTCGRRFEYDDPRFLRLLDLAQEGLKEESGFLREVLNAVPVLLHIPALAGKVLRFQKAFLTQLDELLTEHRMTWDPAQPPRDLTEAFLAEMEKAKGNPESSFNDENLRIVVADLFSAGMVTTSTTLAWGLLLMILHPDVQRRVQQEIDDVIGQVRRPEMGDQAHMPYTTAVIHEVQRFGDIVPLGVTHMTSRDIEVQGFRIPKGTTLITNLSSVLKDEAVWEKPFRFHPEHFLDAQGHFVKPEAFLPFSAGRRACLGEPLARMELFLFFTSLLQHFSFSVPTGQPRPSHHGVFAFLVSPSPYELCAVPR
A further data set deals with cochlea. As to conditions: local administration; cited from earlier work.
Another data set deals with cochlear sensory cells. The following applies: perfusion into the cochlea via osmotic minipump; cited from earlier work.
Data set [4] concerns CYP2D6. The following applies: in vivo; cited from earlier work.
Data set [5] concerns noise-induced temporary threshold shift. The following applies: daily ingestion of 122 mg for 10 days; cited from earlier work.

In the case of `N[C@@H](CC(=O)[O-])C(=O)[O-].[Mg+2]` [magnesium aspartate], the “effect on permanent threshold shift” value in data set [1] was “significant effect on permanent threshold shift”.

For `CO[C@]12C[C@@H](COC(=O)c3cncc(Br)c3)CN(C)[C@@H]1Cc1cn(C)c3cccc2c13` [nicergoline], in data set [2] (0 μg/ml cisplatin, 10 μM nicergoline, 5 cultures), the “concentrations at which nicergoline itself is non-toxic to cochlear cultures” value was “up to 10 μM”. Besides, the “protection against toxic effects of cisplatin” value in data set [2] (2 μg/ml cisplatin, nicergoline 10 nM, 1 μM or 10 μM, FIG. 1) was “protects cochlear ear explants from chemically-induced damage by cisplatin; also recorded: exerting protection against the toxic effects of cisplatin at all tested concentrations”. The “concentration providing maximum protection from cisplatin-induced cell death” value in data set [2] (cisplatin 2 μg/ml (sentence prints 2 μM), test compound 12 h, then with cisplatin 48 h, 5 cultures each) was “about 1 μM”. Besides, the “level in blood plasma after nicergoline dosing” value at CYP2D6 [3] (individuals having normal CYP2D6 function) was “almost no detectable nicergoline in blood plasma”.

For the molecule `CCN(CC)CCn1c(=O)c(Cc2ccc(OC)cc2)nc2ccccc21` [caroverine, 1-[2-(diethylamino)ethyl]-3-[(4-methoxyphenyl)methyl]-2-(1H)-quinoxalinone], the “protection of cochlea from noise trauma” value with cochlea was “protection of cochlea from noise trauma”.

For `Nc1nc2ccc(OC(F)(F)F)cc2s1` [riluzole, 2-amino-6-trofluoromethoxybenzothiazole], the “effect on cochlear damage after acoustic trauma” value in the data set on cochlear sensory cells is “prevents mitochondrial damage and subsequent translocation of cytochrome c, DNA fragmentation and hair cell degeneration”.

As for `CO[C@]12C[C@@H](CO)CN(C)[C@@H]1Cc1cn(C)c3cccc2c13` [MMDL, 1-methyl-10-α-methoxy-9,10-dihydrolysergol], the “level in blood plasma after nicergoline dosing” value at CYP2D6 [3] (in vivo) is reported as “very little MMDL”. In addition, in the data set on CYP2D6 [4], the “level in plasma after nicergoline dosing” value is on record as “relatively high concentrations of MMDL”.

As to `CO[C@]12C[C@@H](CO)CN(C)[C@@H]1Cc1c[nH]c3cccc2c13` [MDL, 10-α-methoxy-9,9-dihydrolysergol], in the data set on CYP2D6 [4], the “level in plasma after nicergoline dosing” value is “low concentration of MDL”.

In the case of `[Mg]` [magnesium], the “effect on noise-induced temporary threshold shift” value in data set [5] is given as “protect against noise-induced temporary threshold shift”.
